According to patent US20040029965A1, “Formulations for reducing or eliminating toxicity of enviromental hormones containing ursodeoxycholic acid” (priority 2000, published 2004):

System: C57B1/6J mice
Experiment: Organ weights (liver, kidneys, testes, epididymides) of mice after a single subcutaneous injection of TCDD
Assay type: in vivo
Experimental: Male C57B1/6J mice of 5 weeks old having the average weight of 18-22 g which had been bred in CRJ (Charles River in Japan) were purchased and used in this example as experimental animals. Those mice were acclimated under the constant breeding condition, i.e. the temperature of 24±1° C., the humidity of 60±10% and the light and darkness cycle of 12 hours, for one week and thereafter, utilized in the experiment.
2,3,7,8-tetrachlorodibenzo-p-dioxin (TCDD) dissolved in toluene (purity of 95% or more as a result of gas chromatography analysis), manufactured by Chem. Services Inc. in USA, was volatilized with nitrogen to obtain powder. The obtained powder was dissolved in a mixed solvent containing acetone and corn oil with a volume ratio of 1:6. The resulting solution each containing 110, 27.5 and 6.9 μg/kg of TCDD was subcutaneously injected to mice at a volume of 5 ml per body weight. […] The mice were supplied with the feed from 10 days before (pre-administration) to 60 days after administration of TCDD (post-administration).
Upon completion of the experiment for 60 days, the experimental animals were fasted for 24 hours and anesthetized with ether. Then, they were abdominally incised and blood was gathered from abdominal vena cava. They were sacrificed by the release of blood. Liver, kidneys, testes and epididymides were extracted and all the extracted organs were weighed. Only the testes were separately kept and observed under optical and electron microscopes. For biochemical finding test, serum was separated from blood with a centrifuge and the separated serum was analyzed with an automated blood biochemical analyzer, Dimension (Dupont, USA). Blood was put to another blood gathering bottle and then, analyzed with an automated blood cell analyzer, Celldyn (Abbott, USA).
The results are expressed as Mean±Standard Deviation values. For statistical analysis of the body weight, feed and water uptake, biochemical findings, hematological findings and the weight of organ in an acute toxicity test, verification was performed by one way analysis of variance (ANOVA) in case of equal distribution. In case significance was recognized in ANOVA, the Student's t-test was performed in the levels of p<0.05 and p<0.01.
The organs, i.e. liver, kidneys, testes and epididymides, were weighed and the results are shown in the following.

[1] = TCDD 6.9 μg/kg + UDCA 0.125 wt %
[2] = TCDD 6.9 μg/kg + UDCA 0.25 wt %
[3] = TCDD 27.5 μg/kg + UDCA 0.125 wt %
[4] = TCDD 27.5 μg/kg + UDCA 0.25 wt %

Question: What does the source list for `C[C@H](CCC(=O)O)[C@H]1CC[C@H]2[C@@H]3[C@@H](O)C[C@@H]4C[C@H](O)CC[C@]4(C)[C@H]3CC[C@]12C` [UDCA, 3α, 7β-dihydroxy-5β-cholanoic acid]?
Answer: Left epididymis Relative weight [1]: 0.121 ± 0.011 %; Left epididymis Weight [1]: 0.029 ± 0.003 g; Left kidney Relative weight [1]: 0.480 ± 0.050%; Left kidney Weight [1]: 0.116 ± 0.014 g; Left testis Relative weight [1]: 0.297 ± 0.020%; Left testis Weight [1]: 0.072 ± 0.006 g; Liver Relative weight [1]: 4.069 ± 0.167%; Liver Weight [1]: 0.980 ± 0.073 g; Right epididymis Relative weight [1]: 0.121 ± 0.014%; Right epididymis Weight [1]: 0.029 ± 0.003 g; Right kidney Relative weight [1]: 0.511 ± 0.049%; Right kidney Weight [1]: 0.123 ± 0.008 g; Right testis Relative weight [1]: 0.304 ± 0.020%; Right testis Weight [1]: 0.073 ± 0.007 g; Left epididymis Relative weight [2]: 0.121 ± 0.011 %; Left epididymis Weight [2]: 0.030 ± 0.003 g; Left kidney Relative weight [2]: 0.484 ± 0.036%; Left kidney Weight [2]: 0.119 ± 0.009 g; Left testis Relative weight [2]: 0.287 ± 0.036%; Left testis Weight [2]: 0.071 ± 0.008 g; Liver Relative weight [2]: 3.870 ± 0.289%; Liver Weight [2]: 0.954 ± 0.057 g; Right epididymis Relative weight [2]: 0.115 ± 0.009%; Right epididymis Weight [2]: 0.029 ± 0.002 g; Right kidney Relative weight [2]: 0.500 ± 0.048%; Right kidney Weight [2]: 0.123 ± 0.013 g; Right testis Relative weight [2]: 0.290 ± 0.030%; Right testis Weight [2]: 0.072 ± 0.008 g; Left epididymis Relative weight (TCDD 6.9 μg/kg + UDCA 0.5 wt %): 0.121 ± 0.010 %; Left epididymis Weight (TCDD 6.9 μg/kg + UDCA 0.5 wt %): 0.029 ± 0.003 g; Left kidney Relative weight (TCDD 6.9 μg/kg + UDCA 0.5 wt %): 0.500 ± 0.025%; Left kidney Weight (TCDD 6.9 μg/kg + UDCA 0.5 wt %): 0.121 ± 0.007 g; Left testis Relative weight (TCDD 6.9 μg/kg + UDCA 0.5 wt %): 0.310 ± 0.050%; Left testis Weight (TCDD 6.9 μg/kg + UDCA 0.5 wt %): 0.075 ± 0.010 g; Liver Relative weight (TCDD 6.9 μg/kg + UDCA 0.5 wt %): 4.258 ± 0.327%; Liver Weight (TCDD 6.9 μg/kg + UDCA 0.5 wt %): 1.028 ± 0.073 g; Right epididymis Relative weight (TCDD 6.9 μg/kg + UDCA 0.5 wt %): 0.114 ± 0.015%; Right epididymis Weight (TCDD 6.9 μg/kg + UDCA 0.5 wt %): 0.027 ± 0.004 g; Right kidney Relative weight (TCDD 6.9 μg/kg + UDCA 0.5 wt %): 0.516 ± 0.043%; Right kidney Weight (TCDD 6.9 μg/kg + UDCA 0.5 wt %): 0.125 ± 0.009 g; Right testis Relative weight (TCDD 6.9 μg/kg + UDCA 0.5 wt %): 0.307 ± 0.031%; Right testis Weight (TCDD 6.9 μg/kg + UDCA 0.5 wt %): 0.074 ± 0.007 g; Left epididymis Relative weight [3]: 0.112 ± 0.017%; Left epididymis Weight [3]: 0.027 ± 0.003 g; Left kidney Relative weight [3]: 0.517 ± 0.056 %; Left kidney Weight [3]: 0.127 ± 0.012 g; Left testis Relative weight [3]: 0.284 ± 0.025 %; Left testis Weight [3]: 0.070 ± 0.005 g; Liver Relative weight [3]: 4.832 ± 0.327%; Liver Weight [3]: 1.187 ± 0.086 g; Right epididymis Relative weight [3]: 0.105 ± 0.015 %; Right epididymis Weight [3]: 0.026 ± 0.003 g; Right kidney Relative weight [3]: 0.489 ± 0.055 %; Right kidney Weight [3]: 0.120 ± 0.013 g; Right testis Relative weight [3]: 0.285 ± 0.016 %; Right testis Weight [3]: 0.070 ± 0.003 g; Left epididymis Relative weight [4]: 0.120 ± 0.018%; Left epididymis Weight [4]: 0.029 ± 0.003 g; Left kidney Relative weight [4]: 0.508 ± 0.038 %
